Results on 25 compounds are retold here after PubChem BioAssay (NCI).

What all share (test): inhibition of tumour cell growth, NCI panel, 48 h
The test system of experiment [1] is MDA-N.
Experiment [2] deals with NCI-H23 lung.
Experiment [3] relates to HCT-15 colon.
In experiment [4] the test system is SR leukemia.
The test system of experiment [5] is UO-31 renal.
The subject of experiment [6] is IGROV1 ovarian.
Experiment [7] relates to SNB-19 CNS.
The test system of experiment [8] is TK-10 renal.
Experiment [9] relates to SK-OV-3 ovarian.
Experiment [10] relates to HCC-2998 colon.
The test system of experiment [11] is OVCAR-4 ovarian.

Structures are written as SMILES.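 1) Cells in 96-well plates. 2) Compound, 48 h, 5 concentrations. 3) Linear interpolation between surrounding doses. 4) Unreached endpoint = highest concentration. Definition used: TGI = concentration required for complete inhibition of growth.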

On to `O=C1/C(=C(/Br)I)c2ccccc2-c2ccccc21`, for which the TGI in experiment [1] is 9.78 µM; in experiment [2] it was 46.4 µM; in experiment [3], 16.6 µM; in experiment [4], > 30.5 µM; in experiment [5], 6.2 µM; in [6], 27.7 µM. For the same compound, the TGI in [7] turned out to be 27 µM; in [8], 21.3 µM; in experiment [9] it was 29.8 µM; in [10] it was 11.4 µM; in [11], 32.3 µM.

On to `O=C(O)Cn1ncn(NC(=O)Cc2ccccc2)c1=S`, for which the TGI in experiment [1], in experiment [2], in [3], in experiment [4], in experiment [5] and in experiment [6] was > 10 µM each time. Besides, the TGI in experiment [7], in experiment [8], in experiment [9], in [10] and in [11] was > 10 µM in each case.

Consider `C=C1CN=C(Nc2ccc(F)cc2F)S1`, for which the TGI in experiment [1], in [2], in experiment [3], in experiment [4], in experiment [5] and in [6] was > 100 µM each time. Besides, the TGI in experiment [7], in experiment [8], in experiment [9], in experiment [10] and in experiment [11] was > 100 µM throughout.

For the compound `CC(=O)NC1C(OCc2ccccc2)OC(CO)C(O)C1OCC(=O)N[C@@H](C)C(=O)N[C@H](CCC(=O)NCCCCNc1c2ccccc2nc2cccc([N+](=O)[O-])c12)C(N)=O` (stereo not given in full), the TGI was 4.15 µM in experiment [1]; 2.54 µM in experiment [2]; 14.7 µM in experiment [3]; > 100 µM in experiment [4]; 6.62 µM in experiment [5]; 4.74 µM in experiment [6]. Further, the TGI was 24 µM in experiment [7]; 16.7 µM in [8]; > 71.8 µM in experiment [9]; 2.91 µM in experiment [10]; 2.85 µM in experiment [11].

As to `CCC1(O)CC(O)c2c(O)c3c(c(O)c2C1C(=O)OC)C(=O)c1cccc(O)c1C3=O` (stereo not given), the TGI in experiment [1] was found to be 47.1 µM; in [2] it was 24.4 µM; in experiment [3], 21.1 µM; in experiment [4], 5.91 µM; in experiment [5] it was 13.2 µM; in experiment [6] it was 12.1 µM. Also, the TGI was 20.9 µM in [7]; 24.3 µM in [8]; > 36.1 µM in experiment [9]; 21.4 µM in experiment [10]; 13.9 µM in [11].

On to `Cc1cc2nc3c(N)nn(CCN(C)C)c3nc2cc1C`, for which the TGI in experiment [1], in experiment [2], in experiment [3], in experiment [4], in experiment [5] and in experiment [6] was > 100 µM in each case. Also, the TGI in [7], in experiment [8], in [9], in experiment [10] and in experiment [11] was > 100 µM each time.

As for `Cn1cnc(/C=C/C#N)c1`, the TGI in [1], in experiment [2], in [3], in experiment [4], in experiment [5] and in [6] was > 100 µM each time. Also, the TGI in [7], in [8], in [9], in experiment [10] and in experiment [11] was > 100 µM throughout.

For the compound `COC(C/C=C\C=C\CC/C=C/CC(C)/C=C/C(=C\C(=O)O)CC(=O)O)/C(C)=C\C=C(/C)C(=O)O` (stereo not given), the TGI in experiment [1], in [2], in experiment [3], in experiment [4], in experiment [5] and in experiment [6] was > 100 µM throughout. The TGI in experiment [7], in experiment [8], in experiment [9], in experiment [10] and in [11] was > 100 µM in each case.

For `O=c1cnc2cc3ccccc3cc2[nH]1`, the TGI in experiment [1], in [2], in experiment [3], in [4], in experiment [5] and in [6] was > 100 µM throughout. The TGI in [7], in [8], in experiment [9], in experiment [10] and in experiment [11] was > 100 µM each time.

Take `COC(CC1(CCNc2ccccc2)C(=O)N(COCC[Si](C)(C)C)c2ccccc21)OC` (stereo not given): the TGI in experiment [1] was > 68.2 µM; in experiment [2], 32.9 µM; in [3], 34.2 µM; in [4], > 100 µM; in [5] it was 29.6 µM; in [6], 21.4 µM. The TGI is 33.1 µM in experiment [7]; 28.9 µM in [8]; 30 µM in experiment [9]; 4.12 µM in experiment [10]; 28.6 µM in experiment [11].

`Cc1sc2nc3n(sc4nc5sc(C)c(C)c5c(=O)n43)c(=O)c2c1C`: the TGI in [1], in experiment [2], in experiment [3], in experiment [4], in experiment [5] and in [6] was > 100 µM each time. In addition, the TGI in experiment [7], in [8], in [9], in [10] and in experiment [11] was > 100 µM each time.

Turning to `CCCCCCCCCCC[N+]1(Cc2ccccc2)CC2CCN(Cc3ccccc3)CC2C1` (stereo not given), the TGI turned out to be 1.25 µM in [1]; 1.03 µM in experiment [2]; 2.96 µM in experiment [3]; 1.07 µM in experiment [4]; 2.56 µM in [5]; 1.78 µM in experiment [6]. For the same compound, the TGI in experiment [7] was 1.49 µM; in experiment [8] it was 2.57 µM; in experiment [9], 3.13 µM; in experiment [10], 2 µM; in experiment [11], 2.02 µM.

For `CC(=O)Nc1nc(C)c(S(=O)(=O)NC(=O)N2c3ccccc3CCc3ccccc32)s1`, the TGI in [1], in experiment [2], in experiment [3], in experiment [4], in experiment [5] and in experiment [6] was > 100 µM throughout. Moreover, the TGI in [7] is 71.9 µM; in [8] it was > 100 µM; in [9], > 100 µM; in experiment [10], > 100 µM; in [11], > 100 µM.

For `Cc1ccc(C(=O)NN=C(/N=N/c2cccc(C)c2)c2ccc(N(C)C)cc2)cc1`, the TGI in [1], in experiment [2], in experiment [3], in [4], in [5] and in experiment [6] was > 100 µM each time. Also, the TGI in [7], in experiment [8], in [9], in experiment [10] and in experiment [11] was > 100 µM in each case.

On to `CC1Cc2c(cc(N)nc2Br)NC1=O` (stereo not given), for which the TGI in [1], in experiment [2], in [3], in experiment [4], in experiment [5] and in [6] was > 100 µM in each case. Moreover, the TGI in experiment [7], in experiment [8], in experiment [9], in experiment [10] and in experiment [11] was > 100 µM in each case.

`Cc1cn([C@@H]2C[C@](C)(CO)N(C)O2)c(=O)[nH]c1=O`: the TGI in [1], in experiment [2], in experiment [3], in [4], in [5] and in experiment [6] was > 100 µM each time. Moreover, the TGI in [7], in [8], in experiment [9], in experiment [10] and in experiment [11] was > 100 µM throughout.

Turning to `O=C(c1ccccc1)c1ccc2nc(-c3c(Cl)c(Cl)c(Cl)c(Cl)c3C(=O)Nc3ccco3)[nH]c2c1`, the TGI in experiment [1] was 41 µM; in experiment [2] it was > 100 µM; in experiment [3], > 100 µM; in [4], 58.8 µM; in experiment [5], > 100 µM; in experiment [6], > 100 µM. Besides, the TGI in experiment [7] is > 100 µM; in experiment [8], > 100 µM; in experiment [9], > 100 µM; in experiment [10], 53.1 µM; in [11] it was > 100 µM.

`O=C1Sc2cc3ccccc3cc2C(=O)Sc2cc3ccccc3cc21`: the TGI in experiment [1] is > 100 µM; in [2], > 100 µM; in experiment [3], 90.7 µM; in [4], 9.27 µM; in [5], 37.1 µM; in [6], > 100 µM. In addition, the TGI in experiment [7] is > 100 µM; in [8] it was > 100 µM; in experiment [9], > 100 µM; in experiment [10] it was 58.7 µM; in experiment [11] it was 69.5 µM.

Turning to `CCOC(=O)c1nc2ccccc2nc1Nc1ccc(F)cc1`, the TGI in experiment [1] was > 100 µM; in experiment [2] it was 69.1 µM; in experiment [3], > 100 µM; in experiment [4], > 100 µM; in [5] it was > 100 µM; in experiment [6], 44.8 µM. Moreover, the TGI in experiment [7] is 46.6 µM; in experiment [8] it was > 100 µM; in experiment [9], 37.7 µM; in experiment [10], > 100 µM; in experiment [11], > 100 µM.

As to `CN(c1ccc(Cl)cc1)S(=O)(=O)c1ccccc1`, the TGI in [1], in [2], in [3], in [4], in experiment [5] and in experiment [6] was > 100 µM throughout. For the same compound, the TGI in experiment [7], in experiment [8], in experiment [9], in experiment [10] and in [11] was > 100 µM throughout.

As for `C=C1CC(Cn2cc(Br)c(=O)[nH]c2=O)(c2ccc(Br)cc2)OC1=O` (stereo not given), the TGI is 7.46 µM in experiment [1]; 10.6 µM in experiment [2]; 3.85 µM in experiment [3]; > 22.6 µM in experiment [4]; 27.1 µM in [5]; 4.06 µM in experiment [6]. The TGI in experiment [7] was 30.4 µM; in experiment [8], 23 µM; in experiment [9], 24.6 µM; in experiment [10], 8.4 µM; in experiment [11], 4.63 µM.

Consider `CC(C)CCCC(C)[C@H]1CC[C@H]2NCCCC[C@]12C` (stereo not given in full), for which the TGI in [1] turned out to be 3.99 µM; in experiment [2], 23.8 µM; in experiment [3], 6.91 µM; in experiment [4], 6.23 µM; in experiment [5], 20.7 µM; in [6], 19.8 µM. In addition, the TGI was found to be 17.9 µM in experiment [7]; 11.9 µM in [8]; 28.4 µM in experiment [9]; 2.72 µM in experiment [10]; 17.4 µM in experiment [11].

As to `O=C1c2ccccc2C2(c3ccc(Cl)cc3)N[C@@H]3CCCC[C@@H]3N12` (stereo not given in full), the TGI in experiment [1], in experiment [2], in [3], in experiment [4], in experiment [5] and in experiment [6] was > 100 µM in each case. Besides, the TGI in experiment [7], in experiment [8], in experiment [9], in experiment [10] and in [11] was > 100 µM throughout.

On to `CCn1c(SCc2nnc(Nc3ccccc3)s2)nc2ccccc2c1=O`, for which the TGI in [1] was > 52.1 µM; in experiment [2], 19.4 µM; in experiment [3], > 100 µM; in experiment [4], 61.4 µM; in [5], 12.1 µM; in experiment [6], 15.7 µM. Also, the TGI in [7] turned out to be 13.4 µM; in [8], 12.3 µM; in experiment [9] it was 7.66 µM; in [10], 31.7 µM; in experiment [11] it was 5 µM.

Take `CCCC(CC)c1cc(O)c(O)cc1C(CC)CCC` (stereo not given): the TGI in experiment [1], in experiment [2], in experiment [3], in experiment [4], in [5] and in experiment [6] was > 10 µM throughout. Besides, the TGI in experiment [7], in experiment [8], in experiment [9], in experiment [10] and in [11] was > 10 µM in each case.
